Test results from patent EP1028947B1, “H3 RECEPTOR LIGANDS OF THE PHENYL-ALKYL-[…]” (SCHERING CORPORATION, priority 1997, dated 1999).

Columns and labels:
H3 receptors = biological target: T1, H3 receptors (Cavia porcellus, UniProt Q9JI35); experiment: H3-Receptor Binding Assay; details: guinea pig brain membranes; 3 nM [3H]R-a-methylhistamine or 3 nM [3H]Na-methylhistamine; 30°C for 30 min; HCl salt of the compound
T1 construct: The source of the H3 receptors in this experiment was guinea pig brain; from tissue; host or cells: guinea pig brain membranes
T1 sequence (Q9JI35 whole entry): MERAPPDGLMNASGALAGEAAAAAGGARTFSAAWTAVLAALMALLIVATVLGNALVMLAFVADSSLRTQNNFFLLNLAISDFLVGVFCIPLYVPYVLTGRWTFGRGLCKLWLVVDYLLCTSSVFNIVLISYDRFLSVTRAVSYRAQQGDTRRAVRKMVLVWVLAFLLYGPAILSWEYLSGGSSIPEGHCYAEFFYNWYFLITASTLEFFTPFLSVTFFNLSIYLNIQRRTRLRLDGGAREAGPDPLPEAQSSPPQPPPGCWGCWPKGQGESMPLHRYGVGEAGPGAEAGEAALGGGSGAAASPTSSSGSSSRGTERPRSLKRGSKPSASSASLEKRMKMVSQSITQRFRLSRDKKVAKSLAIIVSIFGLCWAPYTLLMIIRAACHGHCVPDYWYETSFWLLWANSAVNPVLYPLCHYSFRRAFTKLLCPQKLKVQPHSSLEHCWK
Procedure: H3-Receptor Binding Assay
The source of the H3 receptors in this experiment was guinea pig brain. The animals weighed 400-600 g. The brain tissue was homogenized using a Polytron in a solution of 50 mM Tris, pH 7.5. The final concentration of tissue in the homogenization buffer was 10% w/v. The homogenates were centrifuged at 1,000 x g for 10 min. in order to remove clumps of tissue and debris. The resulting supematants were then centrifuged at 50,000 x g for 20 min. in order to sediment the membranes, which were next washed three times in homogenization buffer (50,000 x g for 20 min. each). The membranes were frozen and stored at -70°C until needed.
The compound to be tested was dissolved in DMSO and then diluted into the binding buffer (50 mM Tris, pH 7.5) such that the final concentration was 2 µg/ml with 0.1% DMSO. Membranes were then added (400 µg of protein) to the reaction tubes. The reaction was started by the addition of 3 nM [^3H]R-a-methylhistamine (8.8 Ci/mmol) or 3 nM [^3H]N^a-methylhistamine (80 Ci/mmol) and continued under incubation at 30°C for 30 min. Bound ligand was separated from unbound ligand by filtration, and the amount of radioactive ligand bound to the membranes was quantitated by liquid scintillation spectrometry. All incubations were performed in duplicate and the standard error was always less than 10%. The Compound was serially diluted to determine a Ki (nM). […]

[1] = Blood levels of the compound (no method described); assay type: in vivo; details: compared with the preferred compounds of WO 95/14007; statement in words, no data

In the case of `O=C(NCc1ccc(Cc2c[nH]cn2)cc1)Nc1cc(Cl)cc(Cl)c1` [compound of the present invention], the Ki (H3 receptors) is reported as 4 nM and the “blood levels of the compound” value [1] is reported as “higher blood levels”.
